In PubChem BioAssay AID248 (DTP/NCI, 2004):
Values joined by “and” are separate entries in the source; they are usually repeats but may differ in a detail not shown here. Equal values may be shown once. Toxic doses and inconclusive results are not listed. No stated cut-off is given here; in the data, active means T/C of 150% or more; inactive means T/C below 125%.

Test system: L1210 leukemia ip in BDF1 mice, survival T/C
Test: NCI In Vivo Anticancer Drug Screen. Data for tumor model L1210 Leukemia (intraperitoneal) in B6D2F1 (BDF1) mice
Settings: endpoint: mean survival time, higher = longer survival
In short: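 Each compound was tested against a transplantable tumor grown in mice. The endpoint was survival, with treated animals benchmarked against vehicle controls as a simple ratio.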

[1] = dose: 100.0 mg/kg/injection, schedule: Q01DX001 (ip), vehicle: carboxymethylcellulose (CMC)
[2] = dose: 200.0 mg/kg/injection, schedule: Q01DX001 (ip), vehicle: carboxymethylcellulose (CMC)
[3] = dose: 400.0 mg/kg/injection, schedule: Q01DX001 (ip), vehicle: carboxymethylcellulose (CMC)
[4] = dose: 100.0 mg/kg/injection, schedule: Q01DX009 (ip), vehicle: saline with Tween-80
[5] = dose: 200.0 mg/kg/injection, schedule: Q01DX009 (ip), vehicle: saline with Tween-80
[6] = dose: 400.0 mg/kg/injection, schedule: Q01DX009 (ip), vehicle: saline with Tween-80
[7] = dose: 100.0 mg/kg/injection, schedule: Q01DX001 (ip), vehicle: saline
[8] = dose: 200.0 mg/kg/injection, schedule: Q01DX001 (ip), vehicle: saline
[9] = dose: 100.0 mg/kg/injection, schedule: Q01DX001 (ip), vehicle: Klucel (hydroxypropylcellulose) (HPC)
[10] = dose: 200.0 mg/kg/injection, schedule: Q01DX001 (ip), vehicle: Klucel (hydroxypropylcellulose) (HPC)
[11] = dose: 400.0 mg/kg/injection, schedule: Q01DX001 (ip), vehicle: Klucel (hydroxypropylcellulose) (HPC)
[12] = dose: 100.0 mg/kg/injection, schedule: Q04DX003 (ip), vehicle: Klucel (hydroxypropylcellulose) (HPC)
[13] = dose: 200.0 mg/kg/injection, schedule: Q04DX003 (ip), vehicle: Klucel (hydroxypropylcellulose) (HPC)
[14] = dose: 400.0 mg/kg/injection, schedule: Q04DX003 (ip), vehicle: Klucel (hydroxypropylcellulose) (HPC)

Measured: T/C

CCCCN(CCCC)S(=O)(=O)CCl
inactive: dose: 100.0 mg/kg/injection, schedule: Q04DX002 (ip), vehicle: saline with Tween-80 116 % of control | dose: 200.0 mg/kg/injection, schedule: Q04DX002 (ip), vehicle: saline with Tween-80 108 % of control | dose: 400.0 mg/kg/injection, schedule: Q04DX002 (ip), vehicle: saline with Tween-80 105 % of control

COc1cc(C[C@H]2c3cc(OC)c(OC)cc3CCN2C)c(Oc2cc3c(cc2OC)-c2c(OC)c(OC)cc4c2[C@H](C3)N(C)CC4)cc1OC
inactive: dose: 12.0 mg/kg/injection, schedule: Q01DX005 (ip), vehicle: other 110 % of control | dose: 12.0 mg/kg/injection, schedule: Q01DX009 (ip), vehicle: other 97 % of control | dose: 18.0 mg/kg/injection, schedule: Q04DX003 (ip), vehicle: other 107 % of control | dose: 24.0 mg/kg/injection, schedule: Q01DX005 (ip), vehicle: other 106 % of control | dose: 24.0 mg/kg/injection, schedule: Q01DX009 (ip), vehicle: other 105 % of control | dose: 25.0 mg/kg/injection, schedule: Q01DX009 (ip), vehicle: clinical formulation 103 % of control | dose: 27.0 mg/kg/injection, schedule: Q08DX002 (ip), vehicle: other 103 % of control | dose: 36.0 mg/kg/injection, schedule: Q04DX003 (ip), vehicle: other 103 % of control | dose: 48.0 mg/kg/injection, schedule: Q01DX005 (ip), vehicle: other 110 % of control | dose: 48.0 mg/kg/injection, schedule: Q01DX009 (ip), vehicle: other 108 % of control | dose: 50.0 mg/kg/injection, schedule: Q01DX009 (ip), vehicle: clinical formulation 100 % of control | dose: 54.0 mg/kg/injection, schedule: Q08DX002 (ip), vehicle: other 106 % of control | dose: 72.0 mg/kg/injection, schedule: Q04DX003 (ip), vehicle: other 108 % of control | dose: 80.0 mg/kg/injection, schedule: Q01DX015 (ip), vehicle: carboxymethylcellulose (CMC) 88 % of control | dose: 96.0 mg/kg/injection, schedule: Q01DX005 (ip), vehicle: other 108 % of control | dose: 96.0 mg/kg/injection, schedule: Q01DX009 (ip), vehicle: other 105 % of control | dose: 100.0 mg/kg/injection, schedule: Q01DX009 (ip), vehicle: clinical formulation 102 % of control | dose: 100.0 mg/kg/injection, schedule: Q04DX002 (ip), vehicle: Klucel (hydroxypropylcellulose) (HPC) 104 % of control | dose: 108.0 mg/kg/injection, schedule: Q08DX002 (ip), vehicle: other 102 % of control | dose: 144.0 mg/kg/injection, schedule: Q04DX003 (ip), vehicle: other 103 % of control | dose: 160.0 mg/kg/injection, schedule: Q01DX015 (ip), vehicle: carboxymethylcellulose (CMC) 93 % of control | dose: 192.0 mg/kg/injection, schedule: Q01DX005 (ip), vehicle: other 105 % of control | dose: 192.0 mg/kg/injection, schedule: Q01DX009 (ip), vehicle: other 101 % of control | dose: 200.0 mg/kg/injection, schedule: Q04DX002 (ip), vehicle: Klucel (hydroxypropylcellulose) (HPC) 86 % of control | dose: 216.0 mg/kg/injection, schedule: Q08DX002 (ip), vehicle: other 95 % of control | dose: 288.0 mg/kg/injection, schedule: Q04DX003 (ip), vehicle: other 97 % of control | dose: 400.0 mg/kg/injection, schedule: Q04DX002 (ip), vehicle: Klucel (hydroxypropylcellulose) (HPC) 101 % of control

CN=C(c1ccc(NC(=O)c2ccc(C(=O)Nc3ccc(C(=NC)N4CCCC4)cc3)cc2)cc1)N1CCCC1
inactive: dose: 0.5 mg/kg/injection, schedule: Q01DX Z (ip), vehicle: water 96 % of control | dose: 1.0 mg/kg/injection, schedule: Q01DX Z (ip), vehicle: water 96 % of control

Cc1ncc(N)c2c1OC(C)(C)OC2
inactive: dose: 50.0 mg/kg/injection, schedule: Q01DX001 (ip), vehicle: saline 91 % of control

CN(c1ccccc1)c1ccc([N+](=O)[O-])cc1[N+](=O)[O-]
inactive: [1] 98 % of control | [2] 102 % of control | [3] 107 % of control

[CH3][Sn]([CH3])([CH3])[CH2][Sn]([CH3])([CH3])[CH3]
inactive: dose: 50.0 mg/kg/injection, schedule: Q01DX009 (ip), vehicle: saline 101 % of control | dose: 100.0 mg/kg/injection, schedule: Q01DX009 (ip), vehicle: saline 93 % of control and 103 % of control | dose: 200.0 mg/kg/injection, schedule: Q01DX009 (ip), vehicle: saline 98 % of control

O=S(=O)(Nc1ccc(CCc2ccc(NS(=O)(=O)c3ccccc3)cc2)cc1)c1ccccc1
inactive: [4] 95 % of control | [5] 98 % of control | [6] 98 % of control

Cn1c(=O)[nH]c(=O)c2c1[nH]c(=O)c(=O)n2C
inactive: dose: 50.0 mg/kg/injection, schedule: Q01DX001 (ip), vehicle: carboxymethylcellulose (CMC) 101 % of control | [1] 98 % of control | [2] 95 % of control | [3] 106 % of control

C=CC1CNCCC1CC(=O)OCC (centres undefined)
inactive: dose: 50.0 mg/kg/injection, schedule: Q04DX003 (ip), vehicle: saline 97 % of control | [7] 95 % of control | dose: 100.0 mg/kg/injection, schedule: Q04DX003 (ip), vehicle: saline 95 % of control | [8] 91 % of control | dose: 200.0 mg/kg/injection, schedule: Q04DX003 (ip), vehicle: saline 111 % of control

O=S(=O)(/N=C1\C=CC(Br)=C\C1=N/S(=O)(=O)c1ccccc1)c1ccccc1
inactive: [9] 89 % of control | [10] 106 % of control | [11] 101 % of control

CC(/C=N/N=C(N)N)=N\NC(N)=S
inactive: dose: 15.0 mg/kg/injection, schedule: Q01DX Z (ip), vehicle: carboxymethylcellulose (CMC) 98 % of control | dose: 30.0 mg/kg/injection, schedule: Q01DX Z (ip), vehicle: carboxymethylcellulose (CMC) 101 % of control | dose: 30.0 mg/kg/injection, schedule: Q01DX Z (oral), vehicle: carboxymethylcellulose (CMC) 103 % of control | dose: 60.0 mg/kg/injection, schedule: Q01DX Z (ip), vehicle: carboxymethylcellulose (CMC) 111 % of control | dose: 60.0 mg/kg/injection, schedule: Q01DX Z (oral), vehicle: carboxymethylcellulose (CMC) 103 % of control | dose: 120.0 mg/kg/injection, schedule: Q01DX Z (ip), vehicle: carboxymethylcellulose (CMC) 114 % of control | dose: 120.0 mg/kg/injection, schedule: Q01DX Z (oral), vehicle: carboxymethylcellulose (CMC) 106 % of control | dose: 240.0 mg/kg/injection, schedule: Q01DX Z (oral), vehicle: carboxymethylcellulose (CMC) 105 % of control

CCCCOB(OCCCC)c1cccc(B(OCCCC)OCCCC)c1
inactive: [7] 89 % of control | [8] 101 % of control | dose: 400.0 mg/kg/injection, schedule: Q01DX001 (ip), vehicle: saline 117 % of control

CNC(=O)Oc1ccccc1C(Cl)(Cl)Cl
inactive: dose: 50.0 mg/kg/injection, schedule: Q01DX009 (ip), vehicle: Klucel (hydroxypropylcellulose) (HPC) 97 % of control | dose: 100.0 mg/kg/injection, schedule: Q01DX009 (ip), vehicle: Klucel (hydroxypropylcellulose) (HPC) 101 % of control | dose: 200.0 mg/kg/injection, schedule: Q01DX009 (ip), vehicle: Klucel (hydroxypropylcellulose) (HPC) 112 % of control

OC1CCC(c2ccccc2)C1 (centres undefined)
inactive: dose: 75.0 mg/kg/injection, schedule: Q01DX001 (ip), vehicle: other 98 % of control | dose: 150.0 mg/kg/injection, schedule: Q01DX001 (ip), vehicle: other 97 % of control | dose: 300.0 mg/kg/injection, schedule: Q01DX001 (ip), vehicle: other 106 % of control

NC(=O)c1nc(-c2ccccc2)c(-c2ccccc2)[nH]c1=O
inactive: [4] 104 % of control | [5] 95 % of control | [6] 96 % of control

CC(C(=O)c1cccs1)C(O)(C(F)(F)F)C(F)(F)F (centres undefined)
inactive: [12] 95 % of control | [13] 95 % of control | [14] 103 % of control

CC1CC(O)C([N+](=O)[O-])C(O)C1 (centres undefined)
inactive: dose: 12.5 mg/kg/injection, schedule: Q01DX009 (ip), vehicle: saline 102 % of control

O=[N+]([O-])c1cccc(C=Nc2ccc(Cl)cc2Cl)c1
inactive: [9] 92 % of control | [12] 102 % of control | [10] 91 % of control | [13] 98 % of control | [11] 91 % of control | [14] 89 % of control
